Reference: publication PMC5609127 (ACS Chemical Neuroscience, 2017)

Assays:
RXRα [1] = target: T1, RXRα (Homo sapiens, UniProt P19793); experiment: Fluorescence polarization; assay type: biochemical; settings: for agonist character in FP assay: agonist format
T1 sequence (P19793 227-458 limits assumed): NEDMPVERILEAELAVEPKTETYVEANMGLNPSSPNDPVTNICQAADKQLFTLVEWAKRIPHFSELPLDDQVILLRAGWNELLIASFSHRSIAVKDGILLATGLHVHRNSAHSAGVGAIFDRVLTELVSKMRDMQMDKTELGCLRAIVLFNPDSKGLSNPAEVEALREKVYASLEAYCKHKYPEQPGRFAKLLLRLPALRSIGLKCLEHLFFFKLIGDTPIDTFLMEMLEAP

RXRα–RXRα homodimer = target: T2, RXRα–RXRα homodimer (Homo sapiens, UniProt P19793); experiment: BRET2 homodimerization assay
T2 sequence (P19793 1-462) 1: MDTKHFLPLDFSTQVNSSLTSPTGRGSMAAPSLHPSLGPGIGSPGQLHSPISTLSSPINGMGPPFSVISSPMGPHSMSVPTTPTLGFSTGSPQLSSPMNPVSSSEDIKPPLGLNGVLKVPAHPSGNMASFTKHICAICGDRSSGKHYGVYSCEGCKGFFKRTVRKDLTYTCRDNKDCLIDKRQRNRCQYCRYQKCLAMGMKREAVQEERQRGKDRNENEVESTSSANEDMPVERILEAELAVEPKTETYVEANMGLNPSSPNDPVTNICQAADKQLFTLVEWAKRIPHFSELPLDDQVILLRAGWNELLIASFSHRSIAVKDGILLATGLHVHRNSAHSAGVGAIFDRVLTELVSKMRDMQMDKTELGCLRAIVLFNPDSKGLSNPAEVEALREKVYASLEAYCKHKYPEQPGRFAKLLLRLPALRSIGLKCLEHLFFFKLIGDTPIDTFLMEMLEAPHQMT
T2 sequence (P19793 1-462) 2: T2 sequence (P19793 1-462) 1

RXRα–NURR1 heterodimer = RXRα–NURR1 heterodimer (Homo sapiens, UniProt P19793); experiment: BRET2 heterodimerization assay; settings: for NURR1–RXRα vs RXRα–RXRα selectivity: BRET2 potency ratio heterodimer vs homodimer
Sequence of RXRα–NURR1 heterodimer (P43354 whole entry partner, one chain of several): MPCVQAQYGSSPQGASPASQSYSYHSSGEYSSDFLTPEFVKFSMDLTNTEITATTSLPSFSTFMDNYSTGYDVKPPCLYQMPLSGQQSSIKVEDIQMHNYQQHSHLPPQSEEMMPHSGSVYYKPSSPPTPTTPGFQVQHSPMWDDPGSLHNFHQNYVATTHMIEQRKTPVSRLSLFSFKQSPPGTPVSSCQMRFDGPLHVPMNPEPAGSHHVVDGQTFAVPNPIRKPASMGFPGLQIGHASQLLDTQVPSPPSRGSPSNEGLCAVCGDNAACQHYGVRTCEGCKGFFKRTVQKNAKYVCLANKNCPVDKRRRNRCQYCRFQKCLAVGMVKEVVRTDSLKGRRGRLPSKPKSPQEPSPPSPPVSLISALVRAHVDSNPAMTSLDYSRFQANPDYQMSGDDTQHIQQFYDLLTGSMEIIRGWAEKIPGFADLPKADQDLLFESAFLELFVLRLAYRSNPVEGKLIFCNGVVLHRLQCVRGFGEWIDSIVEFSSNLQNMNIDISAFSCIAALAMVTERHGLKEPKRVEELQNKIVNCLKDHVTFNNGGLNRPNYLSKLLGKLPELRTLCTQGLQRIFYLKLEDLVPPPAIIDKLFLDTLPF

RXRα [2] = target: T3, RXRα (Homo sapiens, UniProt P19793); experiment: Mammalian two-hybrid; assay type: cell-based; settings: for agonist character in M2H assay: agonist format
T3 sequence (P19793 1-462): T2 sequence (P19793 1-462) 1

RXRα [3] = target: T1, RXRα; experiment: Fluorescence polarization competition assay against LG100268; assay type: biochemical; settings: for antagonist character in FP competition assay: competition against LG100268 (50 nM)
RXRα [4] = target: T3, RXRα; experiment: M2H luciferase competition assay against LG100268; assay type: cell-based; settings: ligand in the 10–40 μM range after stimulation with LG100268 (10 nM)
[5] = FP/EC50, His6-RXRα-LBD 1 μM, fluorescein-labeled D22 coactivator peptide 0.1 μM

Row | Structure (SMILES) | EC50 (RXRα [1]; [5]) [nM] | EC50 (RXRα–RXRα homodimer) [nM] | EC50 (RXRα–NURR1 heterodimer) [nM] | NURR1–RXRα vs RXRα–RXRα selectivity (RXRα–NURR1 heterodimer) [fold] | EC50 (RXRα [2]) [nM] | agonist character in FP assay (RXRα [1]) | EC50 (RXRα [1]; potency range in FP assay) [nM] | agonist character in M2H assay (RXRα [2]) | bias toward RXRα homodimers over RXRα–NURR1 heterodimers (factor) (RXRα–RXRα homodimer; BRET2) | IC50 (RXRα [3]) [nM] | antagonist character in FP competition assay (RXRα [3]) | effect in M2H competition assay (RXRα [4]) | activity in BRET2 assay (RXRα–RXRα) (RXRα–RXRα homodimer) | activity in BRET2 assay (RXRα–NURR1) (RXRα–NURR1 heterodimer)
1 | O=C(O)/C=C/c1ccc(O)c(-c2cccc(-c3ccccc3)c2)c1 [ligand 2, (E)-3-(6-Hydroxy-[1,1′:3′,1″-terphenyl]-3-yl)acrylic Acid] | 140 ± 23 | 31.6 | 3.16 | 10 | 85 ± 9 | – | – | – | – | – | – | – | – | –
2 | O=C(O)/C=C/c1ccc(O)c(-c2cccc(Cc3ccccc3)c2)c1 [ligand 3, (E)-3-(3′-Benzyl-6-hydroxy-[1,1′-biphenyl]-3-yl)acrylic Acid] | 142 ± 9 | 20 | 2.51 | 8 | 92 ± 36 | – | – | – | – | – | – | – | – | –
3 | CC(C)c1cccc(-c2cc(/C=C/C(=O)O)ccc2O)c1 [ligand 4, (E)-3-(6-Hydroxy-3′-isopropyl-[1,1′-biphenyl]-3-yl)acrylic Acid] | 89 ± 7 | – | 0.794 | 25 | 5.8 ± 1.8 | – | – | – | – | – | – | – | – | –
4 | CCCc1cccc(-c2cc(/C=C/C(=O)O)ccc2O)c1 [ligand 5, (E)-3-(6-Hydroxy-3′-propyl-[1,1′-biphenyl]-3-yl)acrylic Acid] | 170 ± 80 | 100 | 5.01 | 20 | 18 ± 10 | – | – | – | – | – | – | – | – | –
5 | Cc1c(-c2ccccc2)cccc1-c1cc(/C=C/C(=O)O)ccc1O [ligand 6, (E)-3-(6-Hydroxy-2′-methyl-[1,1′:3′,1″-terphenyl]-3-yl)acrylic Acid] | 9900 ± 2500 | 158 | 794 | 0.2 | > 2500 | full agonism | 1000 to 10000 | full agonism | – | – | – | – | – | –
6 | Cc1ccc(-c2ccccc2)cc1-c1cc(/C=C/C(=O)O)ccc1O [ligand 7, (E)-3-(6-Hydroxy-6′-methyl-[1,1′:3′,1″-terphenyl]-3-yl)acrylic Acid] | 1020 ± 60 | 31.6 | 79.4 | 0.4 | – | full agonism | 1000 to 10000 | full agonism | – | – | – | – | – | –
7 | C=CCc1ccc(OCCC)c(-c2cc(/C=C/C(=O)O)ccc2O)c1 [ligand 9, (E)-3-(5′-Allyl-6-hydroxy-2′-propoxy-[1,1′-biphenyl]-3-yl)acrylic Acid] | – | 20 | 158 | 0.1 | – | partial agonism | – | – | 10 | 48500 ± 4600 | partial antagonism | clear decrease in luciferase expression | – | –
8 | C=CCc1ccc(OCCCCCC)c(-c2cc(/C=C/C(=O)O)ccc2O)c1 [ligand 10, (E)-3-(5′-Allyl-2′-(hexyloxy)-6-hydroxy-[1,1′-biphenyl]-3-yl)acrylic Acid] | – | > 10000 | > 10000 | – | – | – | – | – | – | 46900 ± 5900 | full antagonism | clear decrease in luciferase expression | did not show appreciable activity | did not show appreciable activity
